Reference: paper PMC6030159 (Scientific Reports, 2018)
Where “and” joins values, the source holds several entries; their conditions need not be identical. Equal entries are not always repeated. Entries after “also recorded” stand apart in the source; their conditions may differ.

What was measured:
Type in all cases: cell-based
MAX:MXD1(MAD1) = test system: T1, MAX:MXD1(MAD1); assay: GLuc MAD:MAX in COS-7 cells; details: 12.5 µM
T1 construct: full-length MXD1(MAD1) or full-length MAX cDNA; expressed in transfected cells; host or cells: COS-7
Procedure: The protein fragment complementation assay using the Gaussia luciferase has been described. 0.2–0.4 μg of each GLuc-construct (see Supplementary Information) together with 0.05–0.2 μg pCMV-Luc (Firefly luciferase) were transiently transfected into HEK293 or COS-7 cells in 6-well plates. 24 hours later cells were treated with compound (10–25 μM) or DMSO. After another 17 hours, the cells were harvested and lyzed in passive lysis buffer (Promega) supplemented with complete protease inhibitor (Roche). After 60 min incubation at room temperature 20 μM D-luciferin was added (substrate of Firefly luciferase) and luminescence was measured in a Lumat LB9501 (Berthold) or OmegaFluostar (BMG Labtech) luminometer. Directly after, Gaussia luciferase substrate Coelenterazine (Promega) was added to a final concentration of 20 μM in a mixture with “Stop n’ Glow” (Promega) and the luciferase activity was measured. The ratio between Gaussia and Firefly luciferase values were calculated and normalized to DMSO-treated control cells.
Supplementary Figure Legends
Supplemental Figure S1. Schematic presentations of MYC and MAX protein constructs. A) BiFC constructs MYC-YFP-N and MAX-YFP-C, containing full-length MYC and MAX fused with N-terminal and C-terminal fragments of yellow fluorescent protein (YFP), respectively 3.
In the MYC deletion mutant MYCΔbHLHZip-YFP-N, the bHLHZip domain, residues 352-432, has been truncated 3. B) Gaussia princeps Luciferase (GLuc) constructs MYC-GLuc-C and MAX-GLuc-N, containing full-length MYC and MAX fused with N-terminal and C-terminal fragments of GLuc, respectively. MYC was truncated at residue 411-432 in order to produce the deletion mutant MYCΔZ ip-GLuc-C. […]
Supplemental Figure S2. […] The cells were reseeded and treated with vehicle or 25 µM of each compound, after which fluorescence was measured 24 hours post-treatment and the YFP/CFP ratio calculated and normalized to DMSO-treated cells.
B) MAD:MAX GLuc assay. MAD-GLuc-C and MAX-GLuc-N constructs were cotransfected into COS-7 cells together with CMV-Luc and treated with MYCMIs (12.5 µM) and analyzed […]

endogenous MYC protein = assay: Western blot of endogenous MYC in HeLa cells; details: 10 μM, 24 hours
Procedure: (§1) These assays were performed essentially as described in[67],[68]. For further information on immunohistochemistry, and on primers and antibodies, see Supplementary Information.

[1] = biological target: T2, endogenous MYC:MAX interaction (Homo sapiens, UniProt P01106); assay: isPLA endogenous MYC:MAX in breast cancer cells (MCF7); details: 24 hours; for MYC:MAX isPLA signals, % of DMSO-treated controls: 10 μM, breast cancer cells; for IC50: titration in MCF7 cells, read-out: IC50 for inhibition of MYC:MAX by isPLA
T2 construct: endogenous in cells; host or cells: breast cancer cells; MCF7 named for the titration
Procedure: The isPLA assay has been described. Antibodies used are listed in Supplementary Information. […] Slides were washed in PBS with 0.05% Tween 20 and incubated in blocking buffer after which isPLA was performed using the Duolink® in situ PLA kit (Sigma-Aldrich) according to the manufacturer’s protocol. DNA was stained with DAPI. Incubation with primary antibodies were performed at +4 °C overnight. Images were taken using an Axiovert 200M inverted microscope (Zeiss) and fluorescent dots were quantified using semi-automated analysis in ImageJ (http://imagej.net) and averaged to number of dots per cell.

[2] = test system: MYC-driven transcription (ODC1, RSG16, CR2); assay: RT-qPCR of MYC target genes in U2OS-MYC-ER cells; details: 10 μM, 24 hours
Procedure: To investigate the effect of the compounds on MYC-driven transcription, we utilized U2OS cells expressing a MYC-estrogen receptor (MYC-ER) fusion protein, the activity of which is regulated by the ligand 4-hydroxytamoxifen (HOT)[43].
as §1

SK-N-DZ cells = assay: Anchorage-independent growth in agarose; details: Homo sapiens, 384 h, 0.35% agarose, 16 days
Procedure: Triton-X-114 (Sigma). Truncated p53 core protein was a kind gift from Klas Wiman, CCK, […]
Cell proliferation assays. Cell growth and viability was estimated in triplicates with WST-1 (Roche) or Resazurin sodium salt (Sigma-Aldrich) assays in medium at 37°C and 5% CO 2 for 2 hours after which absorbance or fluorescence, respectively, was measured with an Omega Fluostar (BMG Labtech) in a 96 well plate format. Cell counting was done in 96 well plates with CellTracker Green (ThermoFisher) for 30 min in the incubator, after which DAPI was added for 5 min. Images were taken in the green (FITC) and blue (DAPI) channels using a fluorescence microscope (ImageXpress Micro, Molecular Devices). For anchorage-independent growth assay, cells were suspended in 250 µl 0.35% SeaPlaque agarose (InVitro) and seeded into 24 well plates which had previously been coated with a bottom layer of 250 µl 0.7% agarose. After 16 days, the colonies were stained with 100 µg/ml MTT (Sigma) overnight and colonies were counted.
Immunohistochemistry. Apoptosis was visualized at the single-cell level on tumor cryosections using the TUNEL method using the In Situ Cell Death Detection Fluorescein-Roche kit and analyzed by fluorescence microscopy. Briefly, tumor cryosections were fixed in 4% paraformaldyde (PFA) and the assay was performed following the instructions from the manufacturer. Negative controls were run using the reagent without the TdT enzyme. Samples were mounted using Vectashield mounting medium (Vector) and DAPI was used as nuclear counterstaining. Cell proliferation and microvascular density (MVD) were evaluated through Ki67 and CD31staining, respectively, on tumor cryosections and detected by immunofluoresence. Visualization and image acquisition was done in a Zeiss microscope, and for panoramic views by a Vectra imaging system. For quantification, areas with positive TUNEL and Ki67 staining were measured using Image J software. For the analysis of MVD, the number of vessel structures per microscopic field was calculated.

T2 sequence (P01106 whole entry): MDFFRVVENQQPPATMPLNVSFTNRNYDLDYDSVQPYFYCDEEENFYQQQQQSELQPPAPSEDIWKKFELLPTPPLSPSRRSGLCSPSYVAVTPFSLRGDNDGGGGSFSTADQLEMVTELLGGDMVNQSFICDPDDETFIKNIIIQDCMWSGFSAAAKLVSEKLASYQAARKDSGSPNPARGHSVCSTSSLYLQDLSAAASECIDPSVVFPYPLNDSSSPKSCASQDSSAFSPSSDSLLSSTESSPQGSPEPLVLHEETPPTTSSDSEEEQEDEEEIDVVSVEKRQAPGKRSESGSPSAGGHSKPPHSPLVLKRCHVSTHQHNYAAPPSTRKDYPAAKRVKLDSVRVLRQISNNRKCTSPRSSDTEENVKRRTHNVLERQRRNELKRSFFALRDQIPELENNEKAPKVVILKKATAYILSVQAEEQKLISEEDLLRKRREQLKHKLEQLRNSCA

Row | Structure (SMILES) | effect on MAX:MXD1(MAD1) interaction (GLuc) (MAX:MXD1(MAD1)) | effect on endogenous MYC protein levels (western blot) (endogenous MYC protein) | MYC:MAX isPLA signals, % of DMSO-treated controls [1] | IC50 [1] | HOT-induced expression of MYC target genes ODC1, RSG16 and CR2 [2] | GI50 (SK-N-DZ cells) | effect on endogenous MYC protein levels (western blot) (endogenous MYC protein; listed as MYCM-14)
1 | CCOc1ccc2nc3cc(/N=N/c4ccc(N)nc4N)ccc3c(N)c2c1 [MYCMI-6] | did not significantly affect | did not affect MYC protein levels to any greater extent; also recorded: do not | 7% | < 1.5 µM and 1.5 µM | significantly reduced | < 0.4 µM | –
2 | CCCCN(c1ccccc1)c1ncnc2c1cnn2C [MYCMI-11] | did not significantly affect | did not affect MYC protein levels to any greater extent; also recorded: do not | 23% | ~6 µM and 6 µM | reduced expression of the genes to a lesser extent | 5 µM | –
3 | O=C(O)/C=C/C(=O)Nc1cccc2c1-c1ccccc1C2=O [MYCMI-14] | did not significantly affect | did not affect MYC protein levels to any greater extent | 23% | ~6 µM and 6 µM | reduced expression of the genes to a lesser extent | 0.75 µM | do not
